According to article PMC9117146, “Immunogenicity and therapeutic targeting of a public neoantigen derived from mutated PIK3CA” (Nature Medicine, 2022):
No end group written: not given here. *: point of attachment. 5FAM = O=C1OC2(c3ccc(O)cc3Oc3cc(O)ccc32)c2ccc(C(=O)*)cc21

Columns and labels:
[1] = tested on: peptide-pulsed HLA-A*03:01+ target cells; test: Intracellular TNFα of TCR-transduced T cells with peptide-pulsed HLA-A*03:01+ targets; assay type: cell-based
HLA-A*03:02 = HLA-A*03:02 (Homo sapiens, UniProt P04439, E176V/L180Q); test: Differential scanning fluorimetry, peptide/HLA complex; assay type: binding; settings: DSF, SYPRO Orange, 15 μM protein, HBS-EP pH 7.4, representative melt curve (n=3 technical replicates)
[2] = target: HLA-A*03:01 (heavy chain with β2-microglobulin) (human); test: fluorescence polarisation; fluorescence anisotropy; dissociation of fluorescein-labeled peptide from 100 nM purified peptide/HLA-A*03:01 complex with 100 μM unlabeled peptide; 37 °C; 20 mM NaH2PO4, 75 mM NaCl, pH 7.4; t1/2 = 0.693/koff of the slowest rate

Row | t1/2 of the peptide/HLA complex [2] [h] | Molecule | also measured
1 | – | IVFMGWTTK [peptide derived from transmembrane protein 87B (TM87B), position 407-415] | activation of T cells by peptide (in words) [1]: failed to activate TCR4-transduced T cells
2 | – | AHHGGWTTK [pWT, wild-type PI3Kα counterpart peptide] | Tm (melting temperature of peptide/HLA complex) (HLA-A*03:02): 38.7 oC
3 | 5.5 | fluorescein-labeled pMut derivative (P5 Gly substituted with a 5-carboxyfluorescein-modified lysine) (peptide) | –
4 | 0.078 | AHHGK(5FAM)WTTK (also: 5-carboxyfluorescein-modified Lys at P5 (replacing Gly)) [fluorescein-labeled pWT derivative (P5 Gly substituted with a 5-carboxyfluorescein-modified lysine)] | –
